ChEMBL document CHEMBL1201862, “PubChem BioAssay data set” (2004)
Active and inactive are the calls of the source.

Legend:
[1] = molecular target: T1, Small ubiquitin-related modifier 1 (Homo sapiens, UniProt P63165); test: SUMO1 protein interaction blockers, potency – biochemical, fluorescence polarization, uHTS hits, dose response (AID 624382); type: functional; settings: read-out: IC50_Mean
[2] = molecular target: T1, Small ubiquitin-related modifier 1; test: SUMO1 protein-protein binding blockers, potency – biochemical, FRET, dose response (AID 624383); type: functional; settings: read-out: IC50_Mean
INS1 = test: INS-1E survival protection against cytokine death – cell-based, luminescence, retest, dose response (AID 449756); type: functional; settings: Rattus norvegicus;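 further: cell death triggered by IL-1 beta plus TNF-alpha plus IFN-gamma mixture; protective hits raise ATP signal compared with cytokine alone wells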
Protein Wnt-3a = Protein Wnt-3a (Mus musculus, UniProt P27467); test: antagonism of Wnt3a pathway luciferase reporter – Wnt-LIGHT cells, luminescence, selectivity assay for Gli-SUFU antagonist project, dose response (AID 651570); type: functional; settings: read-out: IC50_Mean;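 further: Wnt-LIGHT reporter cells stimulated with conditioned medium from Wnt3a-producing cells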
[3] = molecular target: T2, Probable nicotinate-nucleotide adenylyltransferase (Staphylococcus aureus (strain N315), UniProt P65502); type: functional, Staphylococcus aureus subsp. aureus N315;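 on IC50 Mean: confirmatory dose-response retesting of NadD inhibitor hits first found in an ultra-high-throughput screen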
[4] = molecular target: T2, Probable nicotinate-nucleotide adenylyltransferase; type: functional, Staphylococcus aureus subsp. aureus N315; settings: read-out: IC50_Mean
[5] = molecular target: T3, Rac GTPase-activating protein 1 (Homo sapiens, UniProt Q9H0H5); test: blockers of MgcRacGAP-driven Rac1 GTP hydrolysis – biochemical, ADP Hunter fluorescence, primary and confirmatory, confirmation (AID 624330); type: functional
T3 sequence (Q9H0H5 whole entry): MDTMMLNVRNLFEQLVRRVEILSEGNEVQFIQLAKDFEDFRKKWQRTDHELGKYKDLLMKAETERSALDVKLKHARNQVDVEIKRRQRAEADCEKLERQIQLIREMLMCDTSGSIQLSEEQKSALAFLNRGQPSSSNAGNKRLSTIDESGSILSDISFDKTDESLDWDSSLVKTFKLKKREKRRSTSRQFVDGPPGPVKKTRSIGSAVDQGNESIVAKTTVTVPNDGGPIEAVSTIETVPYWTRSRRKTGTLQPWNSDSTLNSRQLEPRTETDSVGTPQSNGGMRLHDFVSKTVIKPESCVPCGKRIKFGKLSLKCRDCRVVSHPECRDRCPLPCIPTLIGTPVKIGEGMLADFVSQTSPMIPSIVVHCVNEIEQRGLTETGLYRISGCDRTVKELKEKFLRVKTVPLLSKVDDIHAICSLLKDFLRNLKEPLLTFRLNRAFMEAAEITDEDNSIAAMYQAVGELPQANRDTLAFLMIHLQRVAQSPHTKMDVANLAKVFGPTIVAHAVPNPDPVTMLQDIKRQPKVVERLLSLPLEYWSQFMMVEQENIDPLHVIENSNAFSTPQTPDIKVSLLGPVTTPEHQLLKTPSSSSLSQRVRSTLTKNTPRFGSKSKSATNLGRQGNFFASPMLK

Protein RecA = molecular target: T4, Protein RecA (Mycobacterium tuberculosis, UniProt P9WHJ3); test: Fluorescence Cell-Free Homogeneous Dose Retest to Identify Inhibitors of RecA-Intein Splicing Activity. [Related pubchem assays (depositor defined):AID2097, AID2223, AID489010, AID492950]; type: functional
T4 sequence (P9WHJ3 whole entry): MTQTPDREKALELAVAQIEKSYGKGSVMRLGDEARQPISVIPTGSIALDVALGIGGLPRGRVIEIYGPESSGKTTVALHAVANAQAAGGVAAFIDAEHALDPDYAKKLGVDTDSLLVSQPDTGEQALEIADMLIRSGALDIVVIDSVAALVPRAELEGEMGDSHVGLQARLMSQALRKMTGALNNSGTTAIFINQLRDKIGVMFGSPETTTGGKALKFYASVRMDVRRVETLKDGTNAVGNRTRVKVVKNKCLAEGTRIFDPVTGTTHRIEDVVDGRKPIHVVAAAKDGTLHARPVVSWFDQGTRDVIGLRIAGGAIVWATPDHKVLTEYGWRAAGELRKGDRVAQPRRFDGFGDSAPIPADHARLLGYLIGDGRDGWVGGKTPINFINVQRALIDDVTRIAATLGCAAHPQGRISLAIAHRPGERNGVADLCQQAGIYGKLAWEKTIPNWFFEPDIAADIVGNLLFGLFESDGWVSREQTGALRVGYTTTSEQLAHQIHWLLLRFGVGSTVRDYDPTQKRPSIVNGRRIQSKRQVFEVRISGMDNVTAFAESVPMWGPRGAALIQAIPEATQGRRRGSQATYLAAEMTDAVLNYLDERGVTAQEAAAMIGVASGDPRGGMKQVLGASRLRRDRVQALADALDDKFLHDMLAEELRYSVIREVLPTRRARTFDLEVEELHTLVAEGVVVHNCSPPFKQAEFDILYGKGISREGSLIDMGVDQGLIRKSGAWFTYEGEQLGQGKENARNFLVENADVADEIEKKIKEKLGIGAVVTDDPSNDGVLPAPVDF

[6] = loss of viability in HepG2 cells – cell-based, CellTiter-Glo, cherry-picked, cytotoxicity control for Shn3 inhibitor project, dose response (AID 624134); type: functional
[7] = reduced cellular PGC1a acetyl-lysine signal – cell-based, cherry-picked samples, dose response (AID 720514); type: functional;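 further: potency may reflect raised or lowered acetylation signal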
[8] = viability loss in HeLa cells – cytotoxicity control for MgcRacGAP inhibitor project, dose response (AID 624300); type: functional
Genome polyprotein = Genome polyprotein (dengue virus type 2, UniProt P29990); test: flavivirus cap methylation enzyme inhibition – biochemical, confirmation dose response, primary screen (AID 588689); type: functional
[9] = Fluorescence-based cell-based high throughput dose response assay for inhibitors of the interaction of nucleotide-binding oligomerization domain containing 2 (NOD2) and the receptor-interacting serine-threonine kinase 2 (RIPK2).; type: functional; settings: Homo sapiens
[10] = reduction of Shn3 3'UTR-driven luciferase in osteoblasts – cell-based, Clone20 osteoblasts, firefly luciferase, cherry-picked, dose response (AID 624132); type: functional;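 further: firefly luciferase luminescence from reporter carrying the Shn3 3'UTR in osteoblasts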
[11] = NIH3T3 cell viability loss – ATP luminescence, mouse fibroblasts, counter-screen, dose response (AID 2010); type: functional, cell-based;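 further: cells exposed to compound for about 90 hours before reading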
[12] = Trypanosoma cruzi growth suppression in host cells – NIH3T3 host cells, beta-gal luminescence, confirmation (AID 2044); type: functional, cell-based;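 further: intracellular parasites grown in NIH/3T3 mouse fibroblasts as host cells; luminescent beta-galactosidase reporter signal from transgenic T. cruzi replicating inside host cells; inhibitors lower the luminescence signal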
[13] = molecular target: T5, Replicative DNA helicase DnaB (Mycobacterium tuberculosis, UniProt P9WMR3); test: DnaB intein splicing inhibitors, dose response, biochemical, cell-free fluorescence (AID 449749); type: functional
T5 sequence (P9WMR3 whole entry): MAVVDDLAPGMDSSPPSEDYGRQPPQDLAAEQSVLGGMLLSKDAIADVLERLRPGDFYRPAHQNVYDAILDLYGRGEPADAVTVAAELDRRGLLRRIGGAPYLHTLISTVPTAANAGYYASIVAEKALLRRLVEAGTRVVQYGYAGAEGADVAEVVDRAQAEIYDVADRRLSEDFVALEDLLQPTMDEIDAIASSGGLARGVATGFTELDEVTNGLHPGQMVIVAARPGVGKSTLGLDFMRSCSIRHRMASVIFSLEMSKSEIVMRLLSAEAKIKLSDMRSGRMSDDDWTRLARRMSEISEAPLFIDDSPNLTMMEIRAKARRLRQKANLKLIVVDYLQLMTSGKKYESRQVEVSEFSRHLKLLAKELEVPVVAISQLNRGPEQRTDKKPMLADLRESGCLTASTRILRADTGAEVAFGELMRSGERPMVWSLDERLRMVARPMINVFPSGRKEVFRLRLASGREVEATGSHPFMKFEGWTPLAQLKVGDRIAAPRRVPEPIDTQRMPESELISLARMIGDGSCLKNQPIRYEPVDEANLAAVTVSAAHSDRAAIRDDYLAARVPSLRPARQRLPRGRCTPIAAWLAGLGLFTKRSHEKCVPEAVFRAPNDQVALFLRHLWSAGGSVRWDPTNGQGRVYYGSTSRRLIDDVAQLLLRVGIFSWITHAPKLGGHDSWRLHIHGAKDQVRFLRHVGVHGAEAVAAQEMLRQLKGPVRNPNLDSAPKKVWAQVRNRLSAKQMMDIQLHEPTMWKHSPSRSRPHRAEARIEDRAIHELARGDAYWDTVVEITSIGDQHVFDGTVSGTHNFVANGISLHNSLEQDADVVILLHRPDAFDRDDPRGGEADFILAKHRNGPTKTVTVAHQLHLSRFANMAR

[14] = non-specific 3'UTR reporter inhibition in Clone20-Shn3RL – cell-based, Renilla luciferase, cherry-picked, counter-screen for Shn3 inhibitor project, dose response (AID 624133); type: functional
H4 = test: Luminescence Cell-Based Dose Response HTS to Identify Activators of 5'UTR Stem-Loop Driven Prion Protein mRNA Translation in H4 Neuroglioblastoma Cells. [Related pubchem assays: 1829 (Project Summary), 1814 (Primary HTS)]; type: functional; settings: Homo sapiens
[15] = viability of uninfected HEp-2 cells – cell-based, HTS, cytotoxicity control for RSV inhibitor project, dose response (AID 2410); type: functional; settings: human respiratory syncytial virus
[16] = Luminescence Cell-Based Dose Response HTS to Identify Activators of Luciferase Translation or Activity in H4 […] Cells. [Related pubchem assays: 1829 (Project Summary), 1814 (Primary HTS)]; type: functional
[17] = Luminescence Cell-Based Dose Confirmation HTS to Identify Activators of 5'UTR Stem-Loop Driven Alpha-Synuclein mRNA Translation in H4 Neuroglioblastoma Cells. [Related pubchem assays: 1829 (Project Summary), 1814 (Primary HTS)]; type: functional
HeLa = test: ATP-based viability loss in HeLa cells – cell-based, CellTiter-Glo luminescence, cherry-pick samples, cytotoxicity control for MITF activator project, dose response (AID 540259); type: functional; settings: Homo sapiens
[18] = molecular target: T6, Carboxy-terminal domain RNA polymerase II polypeptide A small phosphatase 1 (Homo sapiens, UniProt Q9GZU7); test: CTDSP1 inhibitors, concentration-response, biochemical, absorbance readout, ultra-high-throughput screen actives (AID 540297); type: functional
T6 sequence (Q9GZU7 whole entry): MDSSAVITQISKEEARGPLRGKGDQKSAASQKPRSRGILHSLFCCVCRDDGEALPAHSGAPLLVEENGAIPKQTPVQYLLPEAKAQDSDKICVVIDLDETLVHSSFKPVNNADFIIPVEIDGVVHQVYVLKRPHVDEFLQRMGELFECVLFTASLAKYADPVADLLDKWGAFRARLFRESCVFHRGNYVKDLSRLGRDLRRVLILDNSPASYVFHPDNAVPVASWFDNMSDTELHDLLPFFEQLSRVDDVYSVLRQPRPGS

[19] = molecular target: T7, High affinity choline transporter 1 (Homo sapiens, UniProt Q9GZV3); test: human choline transporter blockers, potency – cell-based, 5-point CRC, membrane potential dye, dose response (AID 504840); type: functional
T7 sequence (Q9GZV3 whole entry): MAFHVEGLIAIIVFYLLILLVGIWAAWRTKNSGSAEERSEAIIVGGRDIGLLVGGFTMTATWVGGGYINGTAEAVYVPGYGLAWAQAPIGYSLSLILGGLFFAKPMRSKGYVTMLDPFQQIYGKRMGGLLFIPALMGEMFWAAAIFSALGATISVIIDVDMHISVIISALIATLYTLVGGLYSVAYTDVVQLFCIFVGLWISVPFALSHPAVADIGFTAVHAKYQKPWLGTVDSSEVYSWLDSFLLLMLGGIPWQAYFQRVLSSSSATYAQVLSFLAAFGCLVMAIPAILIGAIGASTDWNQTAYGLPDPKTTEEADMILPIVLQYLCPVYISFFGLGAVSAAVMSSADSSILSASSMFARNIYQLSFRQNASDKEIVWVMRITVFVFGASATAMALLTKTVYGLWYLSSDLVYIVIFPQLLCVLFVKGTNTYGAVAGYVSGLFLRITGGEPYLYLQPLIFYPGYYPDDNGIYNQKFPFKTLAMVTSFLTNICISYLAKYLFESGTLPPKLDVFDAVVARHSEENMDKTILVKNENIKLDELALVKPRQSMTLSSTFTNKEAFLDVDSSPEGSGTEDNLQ

[20] = molecular target: T7, High affinity choline transporter 1; test: human choline transporter blockers, potency – cell-based, 10-point CRC, membrane potential dye, dose response (AID 588401); type: functional;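 further: membrane potential dye fluorescence of choline-evoked depolarization via CHT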

T1 sequence (P63165 whole entry): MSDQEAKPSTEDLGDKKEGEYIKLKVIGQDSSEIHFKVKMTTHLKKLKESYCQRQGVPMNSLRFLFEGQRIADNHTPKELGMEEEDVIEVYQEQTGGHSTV
T2 sequence (P65502 whole entry): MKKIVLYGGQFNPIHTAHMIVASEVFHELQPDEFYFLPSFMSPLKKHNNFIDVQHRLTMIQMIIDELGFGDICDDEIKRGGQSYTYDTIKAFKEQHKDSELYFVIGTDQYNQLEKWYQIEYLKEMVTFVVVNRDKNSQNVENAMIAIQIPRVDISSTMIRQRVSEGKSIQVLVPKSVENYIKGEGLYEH
Chain of Genome polyprotein (P29990 2492-3391 limits assumed): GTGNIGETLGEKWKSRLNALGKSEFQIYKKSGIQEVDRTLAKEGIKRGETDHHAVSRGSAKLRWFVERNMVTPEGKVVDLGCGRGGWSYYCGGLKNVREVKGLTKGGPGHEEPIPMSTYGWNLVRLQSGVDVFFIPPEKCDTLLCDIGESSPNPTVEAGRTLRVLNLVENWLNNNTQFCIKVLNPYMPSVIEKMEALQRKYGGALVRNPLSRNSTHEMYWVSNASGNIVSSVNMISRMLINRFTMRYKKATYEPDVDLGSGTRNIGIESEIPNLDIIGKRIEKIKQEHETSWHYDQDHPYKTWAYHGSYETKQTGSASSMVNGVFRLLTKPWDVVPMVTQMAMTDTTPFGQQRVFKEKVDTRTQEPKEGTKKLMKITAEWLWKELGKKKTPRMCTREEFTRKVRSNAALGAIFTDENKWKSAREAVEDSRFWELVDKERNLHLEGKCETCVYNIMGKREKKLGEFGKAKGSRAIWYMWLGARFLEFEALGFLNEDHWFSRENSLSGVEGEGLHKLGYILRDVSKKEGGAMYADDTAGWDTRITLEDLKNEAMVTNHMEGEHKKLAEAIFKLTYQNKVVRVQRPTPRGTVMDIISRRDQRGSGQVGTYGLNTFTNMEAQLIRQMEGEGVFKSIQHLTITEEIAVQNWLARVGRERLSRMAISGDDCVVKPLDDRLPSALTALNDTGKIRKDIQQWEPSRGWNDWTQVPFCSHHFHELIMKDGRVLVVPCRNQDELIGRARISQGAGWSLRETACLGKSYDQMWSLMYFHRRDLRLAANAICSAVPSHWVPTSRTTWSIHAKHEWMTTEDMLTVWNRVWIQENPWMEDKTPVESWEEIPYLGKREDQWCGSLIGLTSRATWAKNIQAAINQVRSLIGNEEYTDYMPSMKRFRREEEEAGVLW
Chain of Protein Wnt-3a (P27467 whole entry): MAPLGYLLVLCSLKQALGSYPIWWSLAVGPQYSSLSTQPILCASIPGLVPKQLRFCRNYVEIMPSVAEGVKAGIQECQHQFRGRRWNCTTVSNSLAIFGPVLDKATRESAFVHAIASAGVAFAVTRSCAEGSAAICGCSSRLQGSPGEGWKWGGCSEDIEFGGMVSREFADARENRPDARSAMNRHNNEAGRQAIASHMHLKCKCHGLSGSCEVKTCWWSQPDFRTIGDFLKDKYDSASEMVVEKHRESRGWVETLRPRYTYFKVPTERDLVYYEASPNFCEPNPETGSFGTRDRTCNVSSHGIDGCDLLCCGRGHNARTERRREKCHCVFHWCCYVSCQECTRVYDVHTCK

COc1ccc(C(=O)Nc2nc3cc4c(cc3s2)OCCO4)c(OC)c1
IC50 [1]: > 66.6 µM (inactive) | IC50 [2]: 2.77 µM (active)

CCCCSc1nc2sc3c(c2c(=O)n1-c1ccc(C)cc1)CCN(C)C3
AC50 (INS1): 10.1 µM (active) | IC50 (Protein Wnt-3a): 10.8 µM (active)

Cc1ccc(S(=O)(=O)Nc2ccc(Nc3nccn4c(-c5cccc(OC(F)(F)F)c5)cnc34)cc2)cc1
IC50 [3]: 16.2 µM (active) | IC50 [4]: 27.2 µM (active)

O=C(Nc1ccccc1)C1=C(c2ccccc2)S(=O)(=O)CCS1(=O)=O
IC50 [5]: 123 µM (active) | EC50 (Protein RecA): 0.682 µM (active) | AC50 [6]: 15.4 µM (active) | AC50 [7]: 8.27 µM (active) | CC50 [8]: 71.9 µM (active) | IC50 (Genome polyprotein): > 100 µM (active) | IC50 [9]: 3.59 µM (active) | AC50 [10]: 1.37 µM (active) | EC50 [11]: 2.06 µM (active) | EC50 [12]: 1.31 µM (active) | AC50 [13]: 1.42 µM (active) | AC50 [14]: 10.3 µM (active)

COc1ccccc1N1CCN(C2=Nc3cccc4cccc2c34)CC1
EC50 (H4): 18.5 µM (active) | CC50 [15]: 25.4 µM (active) | EC50 [16]: 19.1 µM (active) | EC50 [17]: 43.3 µM (active) | AC50 (HeLa): 27.1 µM (active)

Oc1ccc(N=Nc2ccccc2)cc1
IC50 [5]: 70.9 µM (active) | AC50 (HeLa): 98.1 µM (active)

C[C@@H]1CN([C@H](C)CO)C(=O)c2cc(NC(=O)c3ccncc3)ccc2O[C@@H]1CN(C)C(=O)Nc1ccccc1
IC50 [18]: 12.8 µM (active) | IC50 [3]: 26.9 µM (active) | IC50 [4]: 35.2 µM (active)

Cn1c(-c2ccc(Cl)cc2)cnc1NCc1cc2c(cc1[N+](=O)[O-])OCO2
IC50 [5]: 73.5 µM (active) | CC50 [8]: 100 µM (active)

O=C(COC(=O)CCC(=O)c1ccc(F)cc1)Nc1ccc2[nH]c(O)nc2c1
IC50 [1]: > 66.6 µM (inactive) | IC50 [2]: 17.6 µM (active)

O=C(Nc1ccc(N2CCCC2)cc1)c1cc(Br)ccc1Cl
IC50 [3]: 21.7 µM (active) | IC50 [4]: 35.9 µM (active)

COc1cccc(CCNC(=O)c2ccc(OC)c(OC3CCN(C(C)C)CC3)c2)c1
IC50 [19]: 5 µM (active) | IC50 [20]: 3.98 µM (active)
